# Starred links: 1 amine or outer side, 2 acyl side, 3 side chain; linkers in the order of their positions; H or OH if unused. Positions of bridges follow the written chain, without caps; N, C: chain ends. Residues, ends and D or L forms follow the SMILES beside them. X1 = C(=CC[*:2])C[*:1]
# Columns and labels:
# [1] = system: Acinetobacter baumannii (A. baumannii); assay type: cell-based; conditions: microbroth dilution, 20-24 hours at 37° C.
# Method in brief: (§1)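 Minimum inhibitory concentrations come from a CLSI-adapted broth microdilution. Cells grew in Mueller-Hinton or cation-adjusted Mueller-Hinton broth, were exposed to peptide dilutions at 5×10^5 CFU/ml, and were read by eye after 20-24 h at 37 °C.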
# [2] = system: Escherichia coli (E. coli); assay type: cell-based; conditions: microbroth dilution, 20-24 hours at 37° C.
# Method in brief: as §1
# [3] = system: Klebsiella pneumoniae (K. pneumoniae); assay type: cell-based; conditions: microbroth dilution, 20-24 hours at 37° C.
# Method in brief: as §1
# [4] = system: Pseudomonas aeruginosa (P. aeruginosa); assay type: cell-based; conditions: microbroth dilution, 20-24 hours at 37° C.
# Method in brief: as §1
# [5] = system: Staphylococcus aureus (S. aureus); assay type: cell-based; conditions: microbroth dilution, 20-24 hours at 37° C.
# Method in brief: as §1
# [6] = 90 minute cytotoxicity assay (LDH release), renal toxicity; assay type: cell-based; conditions: 90 minutes of incubation, LDH release; read-out: Inhibitory Concentration at 50% Cytotoxicity (IC50) Human Renal Proximal Tubule Epithelial Cells (RPTEC)
# Method in brief: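 RPTEC plated overnight, given fresh medium, then exposed to serial peptide dilutions or vehicle for 90 min at 37° C. Medium LDH measured by 10 min reagent incubation and absorbance at 490 nm.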
# [7] = 48 hours cytotoxicity assay (CellTiter-Glo), liver toxicity; assay type: cell-based, human; conditions: 48 hours of incubation, CellTiter-Glo; read-out: Inhibitory Concentration at 50% Cytotoxicity (IC50) Human Liver Cells (HepG2)
# Method in brief: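 HepG2 cells in EMEM with 10% FBS, allowed to attach 4 h, then exposed to serially diluted StAMPs or vehicle for 48 h at 37 °C. Viability read by CellTiter-Glo luminescence.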
smiles,measurement,setting,value
CC[C@H](C)[C@H](NC(=O)CN)C(=O)N[C@@H](Cc1ccccc1)C(=O)N[C@@H](CO)C(=O)N[C@@H](CCCCN)C(=O)N[C@@H](CC(C)C)C(=O)N[C@@H](C)C(=O)NCC(=O)N[C@@H](CCCCN)C(=O)N[C@@H](CCCCN)C(=O)N[C@H]1CSCC=CCSC[C@@H](C(=O)N[C@H](C(=O)N[C@@H](CO)C(=O)NCC(=O)N[C@@H](CC(C)C)C(=O)N[C@@H](CCCCN)C(=O)NCC(N)=O)[C@@H](C)CC)NC(=O)[C@H](CC(C)C)NC(=O)[C@H](CC(N)=O)NC(=O)[C@H](CCCCN)NC1=O [compound 19] (H-GIFSKLAGKKCKNLCISGLKG-NH2; linker 11-15 via X1),Minimum Inhibitory Concentration (MIC) A. baumannii,[1],>64 µg/mL
same,Minimum Inhibitory Concentration (MIC) E. coli,[2],>64 µg/mL
same,Minimum Inhibitory Concentration (MIC) K. pneumoniae,[3],>64 µg/mL
same,Minimum Inhibitory Concentration (MIC) P. aeruginosa,[4],>64 µg/mL
same,Minimum Inhibitory Concentration (MIC) S. aureus,[5],>64 µg/mL
same,IC50,[6],> 200 µg/mL
same,IC50,[7],> 200 µg/mL

# From patent publication US20240391965A1, “STAPLED ANTIMICROBIAL PEPTIDES (STAMPS) AND USES THEREOF” (Lytica Therapeutics, Inc., priority 2021, published 2024)
